Tests used:
Type in all cases: cell-based
DU145 = assay: Cell proliferation assay (cell panel, MTS); details: Homo sapiens, DU-145, 72 h; DU145, Prostate, BRAF WT, RAS WT, 3 days
Protocol: (§1) The proliferation assays against a cell panel were performed as described in ref.[18] Briefly, the cells were treated with DMSO or multiple concentrations of AZ304 for 3 days. The cell growth was determined using the CellTiter 96 Aqueous One Cell Proliferation Assay (Promega, Madison, WI). […] The assays were done in triplicate across different plates.
(§2) Anti-proliferative activity of AZ304 against a panel of cell lines with different BRAF and RAS genetic status. […] Cell growth was determined by MTS assay.

CHL-1 = assay: Cell proliferation assay (cell panel, MTS); details: Homo sapiens, 72 h; CHL-1, Melanoma, BRAF WT, RAS WT, 3 days
Protocol: as §1, §2

SK-MEL-31 = assay: Cell proliferation assay (cell panel, MTS); details: Homo sapiens, 72 h; SK-MEL-31, Melanoma, BRAF WT, RAS WT, 3 days
Protocol: as §1, §2

LNCaP clone FGC = assay: Cell proliferation assay (cell panel, MTS); details: Homo sapiens, 72 h, Prostate, BRAF WT, RAS WT, 3 days
Protocol: as §1, §2

NCI-H23 = assay: Cell proliferation assay (cell panel, MTS); details: Homo sapiens, 72 h; NCI-H23, Lung, BRAF WT, KRAS MT, 3 days
Protocol: as §1, §2

A375pgp = assay: Cell proliferation assay (cell panel, MTS); details: Homo sapiens, 72 h, Melanoma, BRAF V600E HM, RAS WT, 3 days
Protocol: as §1, §2

Melma-3M = assay: Cell proliferation assay (cell panel, MTS); details: Homo sapiens, 72 h, Melanoma, BRAF V600E, RAS WT, 3 days
Protocol: as §1, §2

SW620 = assay: Cell proliferation assay (cell panel, MTS); details: Homo sapiens, SW-620, 72 h; SW620, Colon, BRAF WT, KRAS MT, 3 days
Protocol: as §1, §2

NCI-H1755 = assay: Cell proliferation assay (cell panel, MTS); details: Homo sapiens, 72 h; NCI-H1755, Lung, BRAF A468, RAS WT, 3 days
Protocol: as §1, §2

U937 = assay: Cell proliferation assay (cell panel, MTS); details: Homo sapiens, U-937, 72 h; U937, Lymphoma, BRAF WT, RAS WT, 3 days
Protocol: as §1, §2

IM-9 = assay: Cell proliferation assay (cell panel, MTS); details: Homo sapiens, 72 h; IM-9, Lymphoma, BRAF WT, NRAS MT, 3 days
Protocol: as §1, §2

A549 = assay: Cell proliferation assay (cell panel, MTS); details: Homo sapiens, 72 h; A549, Lung, BRAF WT, KRAS MT, 3 days
Protocol: as §1, §2

MC-F7/mdr+ = assay: Cell proliferation assay (cell panel, MTS); details: Homo sapiens, MCF7, 72 h, Breast, BRAF WT, RAS WT, 3 days
Protocol: as §1, §2

Calu-6 = assay: Cell proliferation assay (cell panel, MTS); details: Homo sapiens, 72 h; Calu-6, Lung, BRAF WT, KRAS MT, 3 days
Protocol: as §1, §2

MIAPaCa-2 = assay: Cell proliferation assay (cell panel, MTS); details: Homo sapiens, MIA PaCa-2, 72 h; MIAPaCa-2, Pancreas, BRAF WT, KRAS MT, 3 days
Protocol: as §1, §2

NIH: OVCAR-3 = assay: Cell proliferation assay (cell panel, MTS); details: Homo sapiens, 72 h; NIH: OVCAR-3, Ovary, BRAF WT, RAS WT, 3 days
Protocol: as §1, §2

SK-MEL-24 = assay: Cell proliferation assay (cell panel, MTS); details: Homo sapiens, 72 h; SK-MEL-24, Melanoma, BRAF V600E, RAS WT, 3 days
Protocol: as §1, §2

NCI-H460 = assay: Cell proliferation assay (cell panel, MTS); details: Homo sapiens, 72 h; NCI-H460, Lung, BRAF WT, KRAS MT, 3 days
Protocol: as §1, §2

JVM-3 = assay: Cell proliferation assay (cell panel, MTS); details: Homo sapiens, 72 h; JVM-3, Lymphoma, BRAF K601N, RAS WT, 3 days
Protocol: as §1, §2

A375 = assay: Cell proliferation assay (cell panel, MTS); details: Homo sapiens, A-375, 72 h; A375, Melanoma, BRAF V600E HM, RAS WT, 3 days
Protocol: as §1, §2

RPMI-8226 = assay: Cell proliferation assay (cell panel, MTS); details: Homo sapiens, RPMI-8226, 72 h; BRAF WT, KRAS MT, 3 days
Protocol: as §1, §2

SK-MEL-2 = assay: Cell proliferation assay (cell panel, MTS); details: Homo sapiens, 72 h; SK-MEL-2, Melanoma, BRAF WT, NRAS MT, 3 days
Protocol: as §1, §2

p-ERK in A375 cells = assay: A375 p-ERK cellular assay; details: Homo sapiens, A-375, 1.25 h; A375 (V600E mutant BRAF melanoma), 75 min; read-out: mean EC50, reduction of ERK phosphorylation (p-ERK)
Protocol: A375 cells were seeded into 96-well micro plates (Costar, Corning, and Lowell, MA) at […] in phenol red free DMEM (Invitrogen, Carlsbad, CA) supplemented with 10% foetal bovine serum. After 48 h, the cells were treated with DMSO or multiple concentrations of AZ304 and then returned to the incubator for 75 min. Medium were then aspirated and cells were fixed with a 6% formaldehyde solution for 20 min at room temperature. Cells were washed once with PBS containing 0.05% Triton X-100 (PBST) and 0.6% hydrogen peroxide added for 20 min at room temperature. After washing again in PBST, cells were blocked with 10% FBS/PBST solution for 1 h at room temperature. After washing, p-ERK monoclonal antibody was added and the plates were placed at 4 °C for overnight. […] Quantification of signal was determined at OD405 using a SpectraMax plate reader (Molecular Devices, Sunnyvale, CA). […] EC50 was calculated using XLift.
Cells were incubated with DMSO or AZ304 for 75 min and p-ERK levels were determined using a p-ERK antibody based ELISA. […] Cells were incubated with DMSO or AZ304 (±EGF) for 75 min and p-ERK levels were determined using a p-ERK antibody based ELISA. […]

Compound: COc1ccc2c(Nc3cc(NC(=O)c4cccc(C(C)(C)C#N)c4)ccc3C)ncnc2c1 [AZ304]
- GI50 (DU145): 11.7 µM
- GI50 (CHL-1): 8.27 µM
- GI50 (SK-MEL-31): 0.43 µM
- GI50 (LNCaP clone FGC): 3.32 µM
- GI50 (NCI-H23): 3.99 µM
- GI50 (A375pgp): 0.43 µM
- GI50 (Melma-3M): 0.1 µM
- GI50 (SW620): 2.78 µM
- GI50 (NCI-H1755): 7.72 µM
- GI50 (U937): 9.37 µM
- GI50 (IM-9): 0.9 µM
- GI50 (A549): 16.7 µM
- GI50 (MC-F7/mdr+): 7.63 µM
- GI50 (Calu-6): 5.51 µM
- GI50 (MIAPaCa-2): 1.16 µM
- GI50 (NIH: OVCAR-3): 11 µM
- GI50 (SK-MEL-24): 0.08 µM
- GI50 (NCI-H460): 8.56 µM
- GI50 (JVM-3): 1.68 µM
- GI50 (A375): 0.23 µM
- GI50 (RPMI-8226): 5.37 µM
- GI50 (SK-MEL-2): 3.91 µM
- EC50 (p-ERK in A375 cells): 0.065 µM

From publication PMC5988692, “AZ304, a novel dual BRAF inhibitor, exerts anti-tumour effects in colorectal cancer independently of BRAF genetic status” (British Journal of Cancer, 2018)
